{
  "source": "BindingDB's records for doi:10.1016/j.bmcl.2006.01.126",
  "about": "(Amgen, 2006)",
  "assay": "Inhibition of TARC-mediated CEM cell migration",
  "data": [
    {"smiles": "Cc1csc(Nc2cccc3ccccc23)n1", "note": "[4-methyl-N-(naphthalen-1-yl)thiazol-2-amine]", "values": [
      {"measurement": "IC50", "result": 6.4, "unit": "µM"}
    ]},
    {"smiles": "c1ccc2c(Nc3nc(CN(CC4CCCCC4)CC4CCCCC4)cs3)cccc2c1", "note": "[4-((bis(cyclohexylmethyl)amino)methyl)-N-(naphthalen-1-yl)thiazol-2-amine]", "values": [
      {"measurement": "IC50", "result": 0.53, "unit": "µM"}
    ]}
  ]
}
